Series [1] deals with multidrug resistant N6ADR cells. The series is described as follows: N6ADR tumor volume in mice (Example 2, FIG. 9). The series is classed as in vivo. Particulars: for effect on tumor volume with paclitaxel (chemosensitization): antibody dosed about 1-4 hrs prior to paclitaxel; for effect on tumor volume without paclitaxel: antibody on day 0, 4, 7, 11, no chemotherapeutic agent. The method, then: N6ADR cells were injected into a cohort of 6 mice per test group prior to administration of the indicated antibodies. The antibodies were administered once palpable tumors reached a size of about 100-150 mm^3 (about 7 days after injection of tumor cells). Antibodies were administered on day 0, day 4, day 7, and day 11. Tumor volumes were measured and are plotted. Panel A: 15D3/MRK16 monoclonal anti-MDR1 antibody. Panel B: KT14/MRK16 monoclonal anti-CD47 antibody. Panel C: Co-administration of 15D3/MRK16 monoclonal anti-MDR1 antibody and KT14/MRK16 monoclonal anti-CD47 antibody. Panel D: KbisP1.1 antibody.
The indicated antibodies were administered with or without the chemotherapeutic agent paclitaxel. Antibody was dosed about 1-4 hrs prior to Paclitaxel.

Series [2] has as its system human red blood cells (RBCs). The series is described as follows: Binding to human erythrocytes. The note with it: FIG. 22A; in contrast to anti-CD47 5F9.
Series [3] deals with cynomolgus RBCs. Briefly: Binding to cynomolgus erythrocytes. Particulars: FIG. 22B; in contrast to anti-CD47 5F9.
The subject of series [4] is N6/ADR cells. The series is described as follows: Vincristine cytotoxicity assay. The series is classed as cell-based. Particulars: Homo sapiens; Table 5; vincristine titrated with antibody at 100 μg/mL (2× final concentration); 72 hr. The method, then:
Cytotoxicity Assays. The effect of antibodies on vincristine cytotoxicity was evaluated on N6/ADR, a doxorubicin-selected, B1-positive variant of the human acute lymphoblastic leukemia (ALL) cell line, NALM6. Cells were plated in 0.05 mL of Assay Media (RPMI-1640+10% FBS) at 5000 cells/well in white flat bottom 96-well tissue culture plates. Vincristine was prepared at 2× final assay concentration by serial dilution from 200 uM in assay media containing test antibodies or control antibodies at 100 μg/mL (2× final concentration), or valspodar, a small molecule B1 inhibitor at 7 uM (2× final concentration). An equivalent volume (0.05 mL) of the vincristine/antibody mixture was added to the N6/ADR cells in 96-well plates. The plates were then incubated at 37° C., in 5% CO2. After 72 hr plates were equilibrated to room temperature and cell viability assessed using Promega® CellTiter-Glo® Luminescent Cell Viability Assay according to the manufacturer's recommended protocol. Luminescence was measured on a Molecular Devices® FlexStation® 3 Multi-Mode Microplate Reader and data analyzed using GraphPad Prism 8.0 software.

Series [5] relates to NALM6 cells. The series is described as follows: NALM6 subcutaneous tumors in SCID-Beige mice. It is filed as in vivo. The note with it: paclitaxel 5 mg/kg and 20 mg/kg. The method, then: NALM6 subcutaneous tumors: Mice were randomized into three groups of five mice each—(i) Control vehicle, (ii) 5 mg/kg and (iii) 20 mg/kg of paclitaxel.
Series [6] deals with NALM6 ADR cells. From the text:
Cells: NALM6 (ATCC) and NALM6 ADR (ATCC), B cell precursor lymphoblastic leukemia cell lines used in this study. NALM6 ADR is a multidrug resistant cell line derived from NALM6 cells.
Mice: Sixty-five 5-6-weeks-old female SCID-Beige mice (Charles River) were used in this study.
Inoculation-2×10^6 cells diluted in PBS:Matrigel (1:1) were subcutaneously injected using a 27G insulin syringe into fifty anesthetized 5-6-week-old female SCID-Beige mice under sterile conditions.
NALM6 ADR subcutaneous tumors: Mice were randomized into nine groups of five mice each—(i) Control isotype IgG1 15 mg/kg, (ii) Control isotype IgG1 15 mg/kg and 5 mg/kg of paclitaxel, (iii) Control isotype IgG1 15 mg/kg and 20 mg/kg of paclitaxel, (iv) BisP1.1 15 mg/kg, (v) BisP1.1 15 mg/kg and 5 mg/kg of paclitaxel, (vi) BisP1.1 15 mg/kg and 20 mg/kg of paclitaxel (vii) Valspodar 20 mg/kg (viii) Valspodar 20 mg/kg and 5 mg/kg of paclitaxel and (ix) Valspodar 20 mg/kg and […]. Antibody, Valspodar and paclitaxel were dosed intraperitoneally twice a week for four consecutive weeks. Antibody/valspodar were injected at least 4 hours prior to paclitaxel injection. Paclitaxel preparation: Since paclitaxel is poorly soluble, a master stock of 50 mg/ml was prepared in absolute ethanol:Kolliphor (1:1). Prior to injection the stock was diluted to recommended doses of 5 mg/kg or 20 mg/kg with PBS maintaining a ratio of (1:16).
Measurements: Tumor measurements were done thrice a week using a calibrated Vernier Caliper and tumor volume calculated as per the formula ½*L*S*S where L is the long axis and s is the short axis of the tumor. Body weights were recorded before treatment started and were continuously monitored throughout the study. Animal survival was evaluated from the first day of treatment until death. To avoid suffering, mice were euthanized when turning moribund according to the above-mentioned predefined criteria: rapid weight loss, loss of ability to ambulate, labored respiration, or inability to drink or feed.
Statistics: Tumor volume and body weights were compared between different experimental groups using exact one-way analysis of variance (ANOVA). Kaplan-Meier survival curves were compared between different treatment groups using the log-rank (Mantel-Cox) test. Statistical analyses were performed using Graph Pad Prism (GraphPad, San Diego, CA, USA) software. The level of significance was set at p<0.05 for all analyses.

Series [7] can be described thus: Single dose cynomolgus monkey toxicity study. The note with it: post infusion; paclitaxel 2 mg/kg. It is filed as in vivo, cynomolgus monkeys (Macaca fascicularis).
Source text: Fifteen cynomolgus monkeys (Macaca fascicularis) were enrolled in a single dose study to evaluate KbisP1.1 toxicity.
Series [8] deals with T1, PDL1 (293T cells overexpressing PDL1) (Homo sapiens, UniProt Q9NZQ7).
T1 construct: expressed in transfected cells; host or cells: 293T
Briefly: PDL1 binding using 293T cells overexpressing PDL1.

Series [9] concerns the target MDR1 (293T cells overexpressing MDR1) (Homo sapiens, UniProt P08183).
Procedure: Binding specificity of the mAbs, Fab and Bispecific IgG1 was tested by FACS using 293T cell lines naturally expressing CD47, 293T naïve cells overexpressing human ABCB1 target, 293T naïve cells having ABCB1 knocked down using Lentiviral RNA vectors, CD47 knock out 293T cells and CD47 knock out 293T cells overexpressing human ABCB1. […] The cells were washed three times with FACS buffer (PBS containing 0.5% BSA). Alexa647 labeled goat anti-human antibody was added as a secondary antibody, and the samples were incubated on ice for another 1 hour. Samples were washed and analyzed using a BD FACS Canto (BD Biosciences).
FACS measurement for MDR1 binding was performed as described in Example 1.

Read-outs that look alike come from different tables or passages of the source.

Data on 7 compounds can be found in patent US12331121B2, “Efflux pump-cancer antigen multi-specific antibodies and compositions, reagents, kits and methods related thereto” (William Robert Arathoon Living Trust Dated August 29, 2016, priority 2019, dated 2025).

What is called IC50 is the concentration that inhibits the measured activity by half. What is called EC50 is the concentration at which the effect is half-maximal.

T1 sequence (Q9NZQ7 19-290): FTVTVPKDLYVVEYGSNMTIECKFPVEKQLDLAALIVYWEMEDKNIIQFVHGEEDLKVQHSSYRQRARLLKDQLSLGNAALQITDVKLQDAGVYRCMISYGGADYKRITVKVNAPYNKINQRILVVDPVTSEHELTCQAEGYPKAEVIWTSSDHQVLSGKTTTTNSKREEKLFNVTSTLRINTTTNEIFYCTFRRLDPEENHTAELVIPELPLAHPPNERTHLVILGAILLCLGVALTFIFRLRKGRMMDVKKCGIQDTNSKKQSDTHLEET

As for “5F9/MRK16: anti-CD47 antibody with two 5F9 heavy chains and two MRK16 light chains”, in series [1], the “effect on tumor volume with paclitaxel (chemosensitization)” value is “not observed” and the “effect on tumor volume without paclitaxel” value was “no significant effect on tumor volume”. Moreover, in series [2], the “binding to human erythrocytes” value is “does not significantly bind”. In addition, the “binding to cynomolgus erythrocytes” value in series [3] is given as “does not significantly bind”.

Consider “15D3/MRK16: anti-MDR1 antibody with two 15D3 heavy chains and two MRK16 light chains”, for which, in series [1], the “effect on tumor volume with paclitaxel (chemosensitization)” value is “rendered the chemoresistant N6ADR cells sensitive to paclitaxel” and the “effect on tumor volume without paclitaxel” value was “no significant effect on tumor volume”.

In [4], `CC[C@]1(O)C[C@H]2CN(CCc3c([nH]c4ccccc34)[C@@](C(=O)OC)(c3cc4c(cc3OC)N(C=O)[C@H]3[C@@](O)(C(=O)OC)[C@H](OC(C)=O)[C@]5(CC)C=CCN6CC[C@]43[C@@H]65)C2)C1` [Vincristine alone, vincristine] gave an IC50 of 543 nM.

Turning to `CC(=O)O[C@H]1C(=O)[C@@]2(C)[C@H]([C@H](OC(=O)c3ccccc3)[C@]3(O)C[C@H](OC(=O)[C@H](O)[C@@H](NC(=O)c4ccccc4)c4ccccc4)C(C)=C1C3(C)C)[C@]1(OC(C)=O)CO[C@@H]1C[C@@H]2O` [paclitaxel, reference compound], the values for the tumor growth inhibition entry in [5], in [6] (paclitaxel 5 mg/kg) and in series [6] (paclitaxel 20 mg/kg) were “significant (p<0.0001) tumor growth inhibition”, “significantly less tumor growth inhibition” and “modest inhibition”, respectively. The “erythema at the infusion site” value in [7] is recorded as “minimal erythema”.

As to `C/C=C/C[C@@H](C)C(=O)[C@H]1C(=O)N[C@@H](C(C)C)C(=O)N(C)CC(=O)N(C)[C@@H](CC(C)C)C(=O)N[C@@H](C(C)C)C(=O)N(C)[C@@H](CC(C)C)C(=O)N[C@@H](C)C(=O)N[C@H](C)C(=O)N(C)[C@@H](CC(C)C)C(=O)N(C)[C@@H](CC(C)C)C(=O)N(C)[C@@H](C(C)C)C(=O)N1C` [valspodar, reference compound], the body weight result in [6] (valspodar result in combination with paclitaxel 20 mg/kg) is given as “significant reduction in body weight”.

As to atezolizumab, the EC50 in [8] worked out at 0.29 nM.

Consider necitumumab, for which the “binding to MDR1 by FACS” value in [9] is listed as “did not show significant binding”.
